Assay results from ChEMBL document CHEMBL1143050, “QSAR study on permeability of hydrophobic compounds with artificial membranes” (Bioorg Med Chem, 2007).
Several values for one entry are separate records, joined by “and”; a condition that tells them apart may be missing. Equal values may be shown once.

Experiments:
[1] = Partition coefficient, log P of the compound; conditions: octanol/water
[2] = Permeability coefficient through artificial membrane in presence of stirred water layer
[3] = Permeability coefficient through artificial membrane in presence of unstirred water layer by PAMPA
[4] = Intrinsic artificial membrane permeability coefficient, log P0 of the compound; assay type: ADME
[5] = tested on: Caco-2; test: Permeability from basolateral to apical side of the Caco-2 cell membrane; assay type: ADME, cell-based; conditions: human
[6] = tested on: Caco-2; test: Permeability from apical to basolateral side of the Caco-2 cell membrane; assay type: ADME, cell-based; conditions: human
[7] = Permeability coefficient through artificial membrane in presence of stirred water layer at 200 rpm stirring speed; assay type: ADME
[8] = Permeability coefficient through artificial membrane in presence of stirred water layer at 100 rpm stirring speed; assay type: ADME
[9] = Permeability coefficient through artificial membrane in presence of stirred water layer at 250 rpm stirring speed; assay type: ADME

| SMILES | logP [1] | Papp ([2]; PAMPA) [×10⁻⁶ cm/s] | LogP app ([2]; artificial membrane) | LogP app [3] | Papp [3] [×10⁻⁶ cm/s] | logPm [4] | LogP app [5] | LogP app [6] | LogP app [7] | LogP app [8] | LogP app ([2]; PAMPA) | LogP app [9] |
| --- | --- | --- | --- | --- | --- | --- | --- | --- | --- | --- | --- | --- |
| C=CCc1ccccc1OCC(O)CNC(C)C (centres undefined) [ALPRENOLOL] | 2.65 | 61.4 | -4.21 | -4.7 | 11.5 | -1.02 | – | – | – | – | – | – |
| CCNc1nc(Cl)nc(NC(C)C)n1 [ATRAZINE] | – | 72.1 | -4.14 | -4.53 | 29.2 | – | -4.45 | -4.39 | – | – | – | – |
| C[C@@H]1C[C@H]2[C@@H]3CCC4=CC(=O)C=C[C@]4(C)[C@@]3(F)[C@@H](O)C[C@]2(C)[C@@]1(O)C(=O)CO [DEXAMETHASONE] | 2.01 | 11.3 | -4.95 | -5.37 | – | – | – | – | – | – | – | – |
| COc1ccc([C@@H]2Sc3ccccc3N(CCN(C)C)C(=O)[C@@H]2OC(C)=O)cc1 [DILTIAZEM] | 2.8 | – | – | -4.64 | 0.34 | -1.85 | – | – | – | – | – | – |
| COC(=O)c1ccccc1C(=O)OC [DIMETHYL PHTHALATE] | 1.56 | 158 | -3.8 | -4.36 | 43.3 | – | – | – | – | – | – | – |
| CCOP(=S)(OCC)Oc1cc(C)nc(C(C)C)n1 [DIMPYLATE] | 3.3 | 31.1 | -4.51 | -5.28 | 5.21 | – | -4.42 | -4.32 | – | – | – | – |
| c1ccc(Nc2ccccc2)cc1 [DIPHENYLAMINE] | – | 15 | -4.82 | -5.51 | 3.1 | – | -4.35 | -4.4 | – | – | – | – |
| CC(C)Cc1ccc(C(C)C(=O)O)cc1 (centres undefined) [IBUPROFEN] | – | – | – | -4.67 and -4.72 | – | -1.15 | – | – | – | – | – | – |
| O=[N+]([O-])NC1=NCCN1Cc1ccc(Cl)nc1 [IMIDACLOPRID] | 0.59 | 5.21 | -5.31 | -5.34 | 4.52 | – | – | – | – | – | – | – |
| CC(C)OP(=O)(OC(C)C)SCc1ccccc1 [IPROBENFOS] | 3.21 | 362 | -3.44 | -4.93 | 11.7 | – | -4.35 | -4.28 | – | – | – | – |
| CC(C(=O)O)c1cccc(C(=O)c2ccccc2)c1 (centres undefined) [KETOPROFEN] | – | – | – | – | – | -2.43 | – | – | -5.49 | -5.55 | – | – |
| COc1nn(CSP(=S)(OC)OC)c(=O)s1 [METHIDATHION] | 2.5 | 46.9 | -4.33 | -4.97 | 10.8 | – | -4.42 | – | – | – | – | – |
| COc1cccc(C(=O)NN(C(=O)c2cc(C)cc(C)c2)C(C)(C)C)c1C [METHOXYFENOZIDE] | – | – | – | -4.72 | 19.1 | – | -4.38 | -4.33 | – | – | – | – |
| COCCc1ccc(OCC(O)CNC(C)C)cc1 (centres undefined) [METOPROLOL] | – | 14.3 | -4.84 | -5.1 and -4.95 | – | -1.75 | – | – | – | – | – | – |
| CC(C)(C)NCC(O)COc1cccc2c1C[C@H](O)[C@H](O)C2 (some centres undefined) [NADOLOL] | 0.71 | 32.7 | -4.49 | -6.15 | – | – | – | – | – | – | – | – |
| CCn1cc(C(=O)O)c(=O)c2cc(F)c(N3CCNCC3)cc21 [NORFLOXACIN] | -1.03 | 0.18 | – | -6.71 | – | – | – | – | – | – | -6.74 | – |
| C=CCOc1ccccc1OCC(O)CNC(C)C (centres undefined) [OXPRENOLOL] | 2.1 | 9.36 | – | -4.83 | – | – | – | – | – | – | -5.03 | – |
| O=C1NC(=O)C(c2ccccc2)(c2ccccc2)N1 [PHENYTOIN] | 2.26 | 11.9 | -4.93 | -4.41 | – | – | – | – | – | – | – | – |
| CC(C)NCC(O)COc1cccc2[nH]ccc12 (centres undefined) [PINDOLOL] | 1.75 | 1.42 | – | -5.31 | – | – | – | – | – | – | -5.85 | – |
| CN1CCN(CC(=O)N2c3ccccc3C(=O)Nc3cccnc32)CC1 [PIRENZEPINE] | 0.1 | 0.82 | -6.09 | -6.05 | – | – | – | – | – | – | – | – |
| CN1C(C(=O)Nc2ccccn2)=C(O)c2ccccc2S1(=O)=O [PIROXICAM] | 1.98 | 19.2 | -4.72 | – | – | -2.08 | – | – | – | – | – | – |
| CC(C)(C)N(NC(=O)c1ccccc1)C(=O)c1ccccc1 [RH-5849] | – | – | – | -4.78 | 16.5 | – | -4.42 | -4.34 | – | – | – | – |
| O=C(O)c1ccccc1O [SALICYLIC ACID] | – | 4.9 | – | – | – | -3.46 | – | – | – | – | -5.31 | – |
| CCc1ccc(C(=O)NN(C(=O)c2cc(C)cc(C)c2)C(C)(C)C)cc1 [TEBUFENOZIDE] | – | – | – | -4.8 | 15.7 | – | -4.39 | -4.44 | – | – | – | – |
| C[C@]12CC[C@H]3[C@@H](CCC4=CC(=O)CC[C@@]43C)[C@@H]1CC[C@@H]2O [TESTOSTERONE] | – | 136 | -3.87 | -4.95 and -4.77 | – | – | – | – | -4.08 | -4.29 | – | -3.87 |
